Measured values from publication PMC8904451, “Novel chalcone-derived pyrazoles as potential therapeutic agents for the treatment of non-small cell lung cancer” (Scientific Reports, 2022).
Read-outs that look alike come from different tables or passages of the source.

Legend:
tubulin = assay: HTS-tubulin polymerization assay; type: biochemical; settings: 120-min kinetic reaction, absorbance 340 nm, vs vehicle
Method: To further evaluate whether the tubulin–microtubule system was the target site of PCH-1, in vitro microtubule polymerization assays were performed using the microtubule protein with Paclitaxel and Vincristine as a reference. Paclitaxel and Vincristine are antimitotic drugs that have been commonly used in conventional chemotherapy for decades. In 1979, it was shown that Paclitaxel accelerates the initiation of tubulin fiber polymerization and stabilizes the formed tubulin fibers in vitro, even in the absence of GTP or MAP in the solution[30]. Vincristine, on the other hand, binds to tubulin and inhibits its polymerization.
The assay was performed according to the manufacturer’s instructions. Briefly, compounds were diluted in DMSO to a concentration of 2 mM and then in GTB buffer to a concentration of 50 µM. In the wells of a 96-well plate (UV transparent, half surface wells) previously heated to 37 °C, 10 µl of dilutions of the test compounds were placed in duplicate. The plate was incubated for 2 min at 37 °C, and 100 µl of freshly prepared tubulin solution (4 mg/ml) in GTB-GTP buffer was then added. The plate was immediately placed in a Tecan SPARK 10 M plate reader, and the reaction kinetics were measured with the following settings: absorbance reading: 340 nm, 37 °C, interval: 45 s, number of cycles: 160.

A-549 cells [1] = assay: MTT cell viability assay, A-549; type: cell-based, human; settings: 72 h, MTT, read-out: IC50 ± SD, growth inhibition, A-549
Method: All the synthesized chalcone-derived pyrazoles were evaluated for their antiproliferative activity against three human non-small cell lung cancer cell lines: A-549, H226, and H460, and a nonmalignant human embryonic kidney cell line HEK293. Cisplatin and 5-fluorouracil (5-FU) were used as a reference. […] The results of the studies are expressed as the IC50 concentration that inhibits 50% growth of cells. […] Following treatment with PCH-1, the viability of all the tested cancer cell lines decreased in a concentration-dependent manner.
The cell viability assay was performed for A-549, H226, H460, and HEK293 cells after treatment with the test compounds by using the 3-(4,5-dimethylthiazol-2-yl)-2,5-diphenyltetrazolium bromide (MTT, Sigma-Aldrich) assay. Briefly, cells were seeded onto 96-well culture plates for attachment. After 24 h, triplicate wells were treated with DMSO (1%) and the agents. […] After 2–4 h of incubation, the medium was removed, and the formazan crystals were dissolved in 100 μl of DMSO. The absorption was measured at 450 nm with an ASYS UVM340 microplate reader (Biochrom Ltd.). The 50% inhibitory concentration (IC50) was defined as the concentration that reduced the absorbance of the DMSO-treated wells by 50% of the vehicle. The IC50 values were generated from GraphPad Prism 9 software by plotting the survival curve as a function of dose from 3 independent experiments.

HEK293 cells = assay: MTT cell viability assay, HEK293; type: cell-based, human; settings: nonmalignant cells, read-out: IC50 ± SD, growth inhibition, HEK293
Method: (§1) All the synthesized chalcone-derived pyrazoles were evaluated for their antiproliferative activity against three human non-small cell lung cancer cell lines: A-549, H226, and H460, and a nonmalignant human embryonic kidney cell line HEK293. Cisplatin and 5-fluorouracil (5-FU) were used as a reference. Cells were exposed to a range of PCH concentrations (0.5–100 µM) for 72 h and analyzed by 3-(4,5-dimethylthiazol-2-yl)-2,5-diphenyl-2H-tetrazolium bromide (MTT) assay. The results of the studies are expressed as the IC50 concentration that inhibits 50% growth of cells. […] Following treatment with PCH-1, the viability of all the tested cancer cell lines decreased in a concentration-dependent manner.
(§2) The cell viability assay was performed for A-549, H226, H460, and HEK293 cells after treatment with the test compounds by using the 3-(4,5-dimethylthiazol-2-yl)-2,5-diphenyltetrazolium bromide (MTT, Sigma-Aldrich) assay. Briefly, cells were seeded onto 96-well culture plates for attachment. After 24 h, triplicate wells were treated with DMSO (1%) and the agents. After 72 h of incubation at 37 °C in 5% CO2, the MTT solution (0.4 mg/ml) was added to each well. After 2–4 h of incubation, the medium was removed, and the formazan crystals were dissolved in 100 μl of DMSO. The absorption was measured at 450 nm with an ASYS UVM340 microplate reader (Biochrom Ltd.). The 50% inhibitory concentration (IC50) was defined as the concentration that reduced the absorbance of the DMSO-treated wells by 50% of the vehicle. The IC50 values were generated from GraphPad Prism 9 software by plotting the survival curve as a function of dose from 3 independent experiments.

H226 cells = assay: MTT cell viability assay, H226; type: cell-based, human; settings: 72 h, MTT, read-out: IC50 ± SD, growth inhibition, H226
Method: as §1, §2

H460 cells = assay: MTT cell viability assay, H460; type: cell-based, human; settings: 72 h, MTT, read-out: IC50 ± SD, growth inhibition, H460
Method: as §1, §2

A-549 cells [2] = assay: Intracellular ROS measurement (H2DCFDA, flow cytometry); type: cell-based, human; settings: A-549, all the tested time points (3, 6, 24 h)
Text: The generation of intracellular reactive oxygen species (ROS) causes an imbalance of cellular redox homeostasis, followed by damage of cellular components and cell death. Therefore, compounds with the ability to produce high levels of ROS and/or inhibit antioxidant processes are often used in anticancer therapies. In the present study, the effect of PCH-1 on ROS generation in A-549 cells was investigated by flow cytometry. As an indicator of ROS generation, the fluorescent probe 2ʹ,7ʹ-dichlorodihydrofluorescein diacetate (H2DCFDA) was used, which undergoes oxidation by ROS to form a highly fluorescent compound 2ʹ,7ʹ-dichlorofluorescein (DCF). As shown in Supplementary Fig. S6 in Supplementary Information, compound PCH-1 induced a massive amount of ROS in A-549 cells in a time-dependent manner. […] Moreover, the induction of ROS was equally high for PCH-1 and the reference compound H2O2 in all the tested time points.
For determination the ROS generation, cells were treated with IC90 of PCH-1, H2O2, or 1% DMSO for 3, 6, and 24 h. Next, a 1 µM CM-H2DCFDA (#C6827; Thermo-Fisher) probe was added to the cells in each plate 30 min before the end of the drug treatment. After incubation cells were collected by trypsinization, stained with 7-Aminoactinomycin D (7-AAD, Sigma-Aldrich), and measured. The analysis was performed with Guava EasyCyte 8 cell sorter (Merck Millipore) and FlowJo software v10. Each experiment was repeated independently three times.

For CC[C@]1(O)C[C@H]2CN(CCc3c([nH]c4ccccc34)[C@@](C(=O)OC)(c3cc4c(cc3OC)N(C=O)[C@H]3[C@@](O)(C(=O)OC)[C@H](OC(C)=O)[C@]5(CC)C=CCN6CC[C@]43[C@@H]65)C2)C1 [Vincristine, vincristine], the “effect on tubulin polymerization kinetics” value (tubulin) was “extended the nucleation time and reduced the total mass of tubulin polymer”.
CC(=O)O[C@H]1C(=O)[C@@]2(C)[C@H]([C@H](OC(=O)c3ccccc3)[C@]3(O)C[C@H](OC(=O)[C@H](O)[C@@H](NC(=O)c4ccccc4)c4ccccc4)C(C)=C1C3(C)C)[C@]1(OC(C)=O)CO[C@@H]1C[C@@H]2O [Paclitaxel] was tested, and the “effect on tubulin polymerization kinetics” value (tubulin) was “accelerated the nucleation phase and increased the total mass of tubulin polymer”.
In the case of COc1cc(C2=NN(C(C)=O)C(c3ccc4c(c3)OCO4)C2)cc(OC)c1OC (centres unmarked) [PCH-2, 1-[5-(2H-1,3-benzodioxol-5-yl)-3-(3,4,5-trimethoxyphenyl)-4,5-dihydro-1H-pyrazol-1-yl]ethan-1-one], the IC50 (A-549 cells [1]; Homo sapiens, A549) is reported as over 100 µM, the IC50 (HEK293 cells; Homo sapiens, HEK293, 72 h) is reported as over 100 µM and the IC50 (H226 cells; Homo sapiens, NCI-H226) is reported as 40.5 ± 3.52 µM. The IC50 (H460 cells; Homo sapiens, NCI-H460) was 43.8 ± 1.12 µM.
Work on COc1ccccc1C1=NN(C(C)=O)C(c2ccc3c(c2)OCO3)C1 (centres unmarked) [PCH-4, 1-[5-(2H-1,3-benzodioxol-5-yl)-3-(2-methoxyphenyl)-4,5-dihydro-1H-pyrazol-1-yl]ethan-1-one] yielded an IC50 (A-549 cells [1]; Homo sapiens, A549) of over 100 µM, an IC50 (HEK293 cells; Homo sapiens, HEK293, 72 h) of over 100 µM and an IC50 (H226 cells; Homo sapiens, NCI-H226) of 86.7 ± 4.7 µM. It also gave an IC50 (H460 cells; Homo sapiens, NCI-H460) of 63.4 ± 3.34 µM.
COc1cc([C@@H]2c3cc4c(cc3[C@@H](O[C@@H]3O[C@@H]5CO[C@@H](C)O[C@H]5[C@H](O)[C@H]3O)[C@H]3COC(=O)[C@H]23)OCO4)cc(OC)c1O [Etoposide, reference compound] was tested, and the IC50 (A-549 cells [1]; Homo sapiens, A549) was 0.54 ± 0.21 µM, the IC50 (HEK293 cells; Homo sapiens, HEK293, 72 h) was 1.91 ± 0.97 µM and the IC50 (H226 cells; Homo sapiens, NCI-H226) was 1.03 ± 0.16 µM. For the same compound, the IC50 (H460 cells; Homo sapiens, NCI-H460) was 0.05 ± 0.01 µM.
For COc1ccc(C2=NN(C(C)=O)C(c3ccc4c(c3)CCO4)C2)cc1 (centres unmarked) [PCH-7, 1-[5-(2,3-dihydro-1-benzofuran-5-yl)-3-(4-methoxyphenyl)-4,5-dihydro-1H-pyrazol-1-yl]ethan-1-one], the IC50 (A-549 cells [1]; Homo sapiens, A549) was over 100 µM, the IC50 (HEK293 cells; Homo sapiens, HEK293, 72 h) was over 100 µM and the IC50 (H226 cells; Homo sapiens, NCI-H226) was 41.5 ± 1.12 µM. It also gave an IC50 (H460 cells; Homo sapiens, NCI-H460) of 30.2 ± 2.14 µM.
In the case of COc1cc2c(cc1C1=NN(C(C)=O)C(c3ccc(O)cc3)C1)SCO2 (centres unmarked) [PCH-9, 1-[5-(4-hydroxyphenyl)-3-(6-methoxy-2H-1,3-benzoxathiol-5-yl)-4,5-dihydro-1H-pyrazol-1-yl]ethan-1-one], the IC50 (A-549 cells [1]; Homo sapiens, A549) is reported as 79.5 ± 4.97 µM, the IC50 (HEK293 cells; Homo sapiens, HEK293, 72 h) is reported as 34.4 ± 2.01 µM and the IC50 (H226 cells; Homo sapiens, NCI-H226) is reported as 38.4 ± 3.53 µM. The IC50 (H460 cells; Homo sapiens, NCI-H460) was 43.8 ± 3.97 µM.
For CC(=O)N1N=C(c2ccc3c(c2)OCO3)CC1c1ccc2c(c1)OCO2 (centres unmarked) [PCH-5, 1-[3,5-bis(2H-1,3-benzodioxol-5-yl)-4,5-dihydro-1H-pyrazol-1-yl]ethan-1-one], the IC50 (A-549 cells [1]; Homo sapiens, A549) was 60.9 ± 4.3 µM, the IC50 (HEK293 cells; Homo sapiens, HEK293, 72 h) was 47 ± 3.18 µM and the IC50 (H226 cells; Homo sapiens, NCI-H226) was 58 ± 2.56 µM. The IC50 (H460 cells; Homo sapiens, NCI-H460) was 38.8 ± 1.77 µM.
For O=c1[nH]cc(F)c(=O)[nH]1 [5-FU, 5-fluorouracil, reference compound], the IC50 (A-549 cells [1]; Homo sapiens, A549) was 8.12 ± 1.01 µM, the IC50 (HEK293 cells; Homo sapiens, HEK293, 72 h) was 11.1 ± 1.53 µM and the IC50 (H226 cells; Homo sapiens, NCI-H226) was 4.01 ± 0.76 µM. The IC50 (H460 cells; Homo sapiens, NCI-H460) was 4.08 ± 0.43 µM.
Compound COc1ccc(C2=NN(C(C)=O)C(c3cc4c(cc3OC)OCO4)C2)cc1 (centres unmarked) [PCH-8, 1-[5-(6-methoxy-2H-1,3-benzodioxol-5-yl)-3-(4-methoxyphenyl)-4,5-dihydro-1H-pyrazol-1-yl]ethan-1-one] has an IC50 (A-549 cells [1]; Homo sapiens, A549) of over 100 µM, an IC50 (HEK293 cells; Homo sapiens, HEK293, 72 h) of over 100 µM and an IC50 (H226 cells; Homo sapiens, NCI-H226) of 61.1 ± 3.12 µM. It also gave an IC50 (H460 cells; Homo sapiens, NCI-H460) of 30.2 ± 2.14 µM.
For OO [H2O2, reference compound], the “induction of ROS, reference compared with PCH-1” value (A-549 cells [2]) was “equally high”.
In the case of N.N.[Cl][Pt][Cl] [Cisplatin, reference compound], the IC50 (A-549 cells [1]) is reported as 29.01 ± 0.12 µM, the IC50 (HEK293 cells; 72 h) is reported as 28.4 ± 1.97 µM and the IC50 (H226 cells) is reported as 17.5 ± 2.12 µM. For the same compound, the IC50 (H460 cells) was 21.5 ± 1.87 µM.
With CC(=O)N1N=C(c2ccc(C)cc2)CC1c1ccc2c(c1)OCO2 (centres unmarked) [PCH-3, 1-[5-(2H-1,3-benzodioxol-5-yl)-3-(4-methylphenyl)-4,5-dihydro-1H-pyrazol-1-yl]ethan-1-one] the IC50 (A-549 cells [1]; Homo sapiens, A549) was over 100 µM, the IC50 (HEK293 cells; Homo sapiens, HEK293, 72 h) was over 100 µM and the IC50 (H226 cells; Homo sapiens, NCI-H226) was 86.7 ± 0.92 µM. It also gave an IC50 (H460 cells; Homo sapiens, NCI-H460) of 24.5 ± 1.74 µM.
With CC(=O)N1N=C(c2ccc(OC(F)(F)F)cc2)CC1c1ccc2c(c1)OCO2 (centres unmarked) [PCH-6, 1-{5-(2H-1,3-benzodioxol-5-yl)-3-[4-(trifluoromethoxy)phenyl]-4,5-dihydro-1H-pyrazol-1-yl}ethan-1-one] the IC50 (A-549 cells [1]; Homo sapiens, A549) was 21.5 ± 4.26 µM, the IC50 (HEK293 cells; Homo sapiens, HEK293, 72 h) was 42.9 ± 1.23 µM and the IC50 (H226 cells; Homo sapiens, NCI-H226) was 24.4 ± 2.13 µM. It also gave an IC50 (H460 cells; Homo sapiens, NCI-H460) of 18.1 ± 2.13 µM.
